{"source": "paper PMC5939083", "about": "(Proceedings of the National Academy of Sciences of the …, 2018)", "biological_target": "T1, CYP9K1 (Anopheles gambiae, UniProt Q8T633)", "T1 sequence (Q8T633 1-531)": "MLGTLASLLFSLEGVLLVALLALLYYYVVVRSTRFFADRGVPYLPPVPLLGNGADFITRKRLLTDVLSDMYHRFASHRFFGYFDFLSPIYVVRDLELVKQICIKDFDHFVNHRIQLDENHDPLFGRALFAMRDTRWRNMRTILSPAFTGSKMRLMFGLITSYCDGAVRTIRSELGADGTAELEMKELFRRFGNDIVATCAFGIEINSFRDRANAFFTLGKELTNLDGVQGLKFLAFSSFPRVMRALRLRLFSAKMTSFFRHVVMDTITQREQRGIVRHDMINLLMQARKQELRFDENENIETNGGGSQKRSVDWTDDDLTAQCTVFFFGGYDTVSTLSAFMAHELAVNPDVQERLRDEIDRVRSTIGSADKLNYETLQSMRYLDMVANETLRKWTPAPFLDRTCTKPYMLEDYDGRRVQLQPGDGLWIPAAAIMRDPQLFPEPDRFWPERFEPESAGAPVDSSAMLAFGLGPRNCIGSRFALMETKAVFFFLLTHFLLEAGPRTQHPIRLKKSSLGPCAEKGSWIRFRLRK", "T1 sequence (Q86QH5 1-679 partner)": "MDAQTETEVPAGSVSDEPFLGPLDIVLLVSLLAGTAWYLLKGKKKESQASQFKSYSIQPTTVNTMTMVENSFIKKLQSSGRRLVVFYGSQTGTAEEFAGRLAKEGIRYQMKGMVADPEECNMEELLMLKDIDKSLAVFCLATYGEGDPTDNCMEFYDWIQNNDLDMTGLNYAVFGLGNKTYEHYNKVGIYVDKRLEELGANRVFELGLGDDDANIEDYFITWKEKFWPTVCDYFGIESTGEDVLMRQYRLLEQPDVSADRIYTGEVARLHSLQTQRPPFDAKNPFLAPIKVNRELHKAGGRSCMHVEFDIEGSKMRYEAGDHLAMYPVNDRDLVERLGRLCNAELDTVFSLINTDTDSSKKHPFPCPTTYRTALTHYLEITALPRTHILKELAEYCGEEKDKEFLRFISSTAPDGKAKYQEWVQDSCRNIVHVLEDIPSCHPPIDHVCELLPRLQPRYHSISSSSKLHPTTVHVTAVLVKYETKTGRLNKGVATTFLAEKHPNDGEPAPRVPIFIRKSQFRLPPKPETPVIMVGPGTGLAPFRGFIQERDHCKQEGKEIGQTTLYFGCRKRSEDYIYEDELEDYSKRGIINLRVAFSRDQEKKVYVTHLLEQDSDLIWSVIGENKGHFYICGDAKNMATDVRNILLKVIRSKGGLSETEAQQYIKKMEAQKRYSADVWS", "T1 sequence (Q86QH4 1-128 partner)": "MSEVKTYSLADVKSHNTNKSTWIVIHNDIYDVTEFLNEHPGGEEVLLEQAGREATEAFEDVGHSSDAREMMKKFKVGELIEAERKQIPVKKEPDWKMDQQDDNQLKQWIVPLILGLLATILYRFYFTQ", "test": "HPLC substrate depletion, Michaelis-Menten fit", "type": "biochemical", "details": "NADPH generating system; AgCPR, AgCytb5; Tris-HCl 0.2 M pH 7.4, 0.25 mM MgCl2, 30 °C; 0.5-150 μM deltamethrin"}
{"smiles": "CC1(C)[C@H](C(=O)O[C@H](C#N)c2cccc(Oc3ccccc3)c2)[C@@H]1C=C(Br)Br", "note": "[deltamethrin]", "values": [{"measurement": "Km", "value": 28.2, "unit": "µM"}]}
